Laboratory results published in PMC6220787 (Clinical Pharmacology in Drug Development, 2018).
Read-outs that look alike come from different tables or passages of the source. Values belong to the compound of their own block, whether it stands above or below them.

What was measured:
[1] = Pharmacokinetics of chlorogenic acids; type: in vivo, human; details: for AUC0–4 h / tmax: analyte in blood after product 1, oral, healthy male subjects; for AUC0–4 h: mean (SD); for tmax: median (min, max)
[2] = analytical recovery test in plasma; cited from earlier work
[3] = cited from earlier work
[4] = healthy subjects, 412 μmol of CGA in 200 mL of coffee; cited from earlier work
[5] = type: in vivo, human
[6] = 60 mg of caffeine, single oral dose, healthy male subjects
[7] = after product 1, relative to 4‐CQA
[8] = after product 1, relative to 5‐CQA

Compound: O=C(/C=C/c1ccc(O)c(O)c1)O[C@@H]1C[C@](O)(C(=O)O)C[C@@H](O)[C@H]1O [5‐CQA, 5‐O‐caffeoylquinic acid]
- AUC0–4 h [1]: 15.7 (10.4) ng·h/mL
- tmax [1]: 1.50 (0.75, 2.50) h
- hydrolyzed into caffeic acid [2]: ~7%

Compound: Cn1c(=O)c2c(ncn2C)n(C)c1=O [caffeine]
- caffeine half‐life ([3]; adult men, dose of 4 mg/kg): 2.5 to 4.5 h
- mean half‐life of caffeine in plasma ([3]; healthy individuals): about 5 hours
- known half‐life of caffeine ([3]; stated as known): ~5 h
- known tmax of caffeine ([3]; stated as known): approximately 60 minutes

Compound: COc1cc(CCC(=O)O)ccc1O [dihydroferulic acid]
- tmax in plasma [4]: 5.2 h

Compound: Cn1c(=O)c2c(ncn2C)n(C)c1=O [Product 2, caffeine]
- GMR (90%CI) of AUC0–4 h of caffeine ([5]; geometric least‐squares mean ratio, product 1 to product 2): 98.33%
- AUC(0-t) ([5]; male, human, serum, oral, 60 mg): 5600 ng·h/mL
- Cmax ([5]; male, human, serum, po, 60 mg): 2090 ng/mL
- tmax ([5]; male, human, serum, po, 60 mg): 0.63 h
- adverse events [6]: no adverse events

More lines, now with the values ahead:

- AUC0–4 h [1]: 16.1 (9.80) ng·h/mL
- tmax [1]: 1.00 (0.75, 4.00) h
Compound: O=C(/C=C/c1ccc(O)c(O)c1)O[C@H]1[C@H](O)C[C@](O)(C(=O)O)C[C@H]1O [4‐CQA, 4‐O‐caffeoylquinic acid]

- AUC0–4 h greater than that of 4‐CQA [1, 7]: ~41%
- concentration (Cmax) greater than that of 4‐CQA [1, 7]: 60%
- AUC0–4 h greater than that of 5‐CQA [1, 8]: 42.5%
- concentration (Cmax) greater than that of 5‐CQA [1, 8]: 58%
Compound: O=C(/C=C/c1ccc(O)c(O)c1)O[C@@H]1C[C@](O)(C(=O)O)C[C@@H](O)[C@H]1O [3‐CQA, 3‐O‐caffeoylquinic acid]
